The values below come from ChEMBL document CHEMBL1201862, “PubChem BioAssay data set” (2004).

Each structure is given as a SMILES string.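 Compound exposure: 48 hours, 5 concentrations, 96-well plates. Abbreviation: GI50, concentration required for 50% inhibition of growth.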 The source made the active and inactive calls. Cut-off read from the data, not from the text of the source: active = GI50 up to about 1.1 µM and inactive = higher.

Test in all cases: inhibition of tumour cell growth, NCI panel, 48 h
Assay [1] has as its system SF-295.
In assay [2] the test system is LOX IMVI.
Assay [3] concerns SK-MEL-2.
The test system of assay [4] is A498.
Assay [5] deals with OVCAR-4.
The subject of assay [6] is SK-OV-3.
Assay [7] concerns K562.
Assay [8] deals with HCT-116.
Assay [9] deals with CCRF-CEM.
Assay [10] has as its system PC-3.
The test system of assay [11] is IGROV-1.
Assay [12] deals with BT-549.
Assay [13] concerns EKVX.
The subject of assay [14] is SF-268.
Assay [15] relates to OVCAR-5.
Assay [16] concerns HL-60.
Assay [17] deals with SW-620.
For assay [18], the system named is HCC 2998.
Assay [19] relates to MDA-N.
The test system of assay [20] is RPMI-8226.

Regarding `OC(C#Cc1ccccc1)(c1ccccc1)c1ccccc1`, the GI50 in assay [1] is 30.3 µM (inactive); in assay [2], 19 µM (inactive); in [3], 23.8 µM (inactive); in assay [4], 27.1 µM (inactive); in [5], 41.8 µM (inactive); in assay [6], > 100 µM (inactive). Further, the GI50 in assay [7] is 34.3 µM (inactive); in assay [8] it was > 100 µM (inactive); in assay [9], 11.6 µM (inactive); in assay [10], 31.9 µM (inactive); in assay [11], 43.7 µM (inactive); in [12], 51.1 µM (inactive). Besides, the GI50 was 23.8 µM (inactive) in assay [13]; 21.4 µM (inactive) in assay [14]; 30.5 µM (inactive) in [15]; 38.6 µM (inactive) in assay [16]; 28.4 µM (inactive) in assay [17]; 50.6 µM (inactive) in assay [18]. The GI50 in [19] was 23.4 µM (inactive); in assay [20] it was 16.4 µM (inactive).

On to `Cc1cc(-c2nc3cc(F)ccc3s2)ccc1NC(=O)C(C)N` (stereo not given), for which the GI50 was 3.82 µM (inactive) in [1]; 4.42 µM (inactive) in [2]; 4.11 µM (inactive) in assay [3]; 3.77 µM (inactive) in [4]; 1.02 µM (active) in [5]; 4.1 µM (inactive) in assay [6]. The GI50 was 5.62 µM (inactive) in assay [7]; 3.29 µM (inactive) in [8]; 0.64 µM (active) in [9]; 4.13 µM (inactive) in assay [10]; 0.0408 µM (active) in [11]; 4.24 µM (inactive) in assay [12]. Also, the GI50 in assay [13] is 3.1 µM (inactive); in assay [14], 4.53 µM (inactive); in assay [15] it was 1 µM (active); in assay [16] it was 0.249 µM (active); in assay [17], 4.62 µM (inactive); in assay [18] it was 0.097 µM (active). Also, the GI50 is 4.21 µM (inactive) in assay [19] and 5.89 µM (inactive) in assay [20].

As to `N/C(=N\c1ccccc1)c1ccccc1N`, the GI50 in assay [1], in assay [2], in assay [3], in assay [4], in assay [5] and in [6] was > 100 µM (inactive) each time. Further, the GI50 was > 100 µM (inactive) in [7]; > 100 µM (inactive) in assay [8]; 40.6 µM (inactive) in assay [9]; > 100 µM (inactive) in [10]; > 100 µM (inactive) in assay [11]; > 100 µM (inactive) in assay [12]. Besides, the GI50 in assay [13] is > 100 µM (inactive); in assay [14], > 100 µM (inactive); in [15] it was > 100 µM (inactive); in assay [16], 31.4 µM (inactive); in assay [17], > 100 µM (inactive); in [18], > 100 µM (inactive). The GI50 in assay [19] and in [20] was > 100 µM (inactive) in each case.

As for `O=C1CC(Cc2n[nH]c3c2CCCC3)CC(=O)N1`, the GI50 in [1], in assay [2], in assay [3], in [4], in assay [5] and in assay [6] was > 100 µM (inactive) each time. Besides, the GI50 in assay [7] is > 100 µM (inactive); in assay [8], > 100 µM (inactive); in assay [9] it was 37.1 µM (inactive); in assay [10] it was > 100 µM (inactive); in assay [11], > 100 µM (inactive); in [12] it was > 100 µM (inactive). The GI50 in [13], in [14], in assay [15], in assay [16], in assay [17] and in assay [18] was > 100 µM (inactive) throughout. For the same molecule, the GI50 in assay [19] and in assay [20] was > 100 µM (inactive) throughout.

In the case of `O=S(=O)(c1ccccc1)C1CN(Cc2ccccc2)CCN(Cc2ccccc2)C1`, the GI50 in [1] was 73.8 µM (inactive); in assay [2], 6.25 µM (inactive); in [3], 36.8 µM (inactive); in assay [4], > 100 µM (inactive); in [5], 9.79 µM (inactive); in [6], > 71.6 µM (inactive). The GI50 in assay [7] is 5.97 µM (inactive); in assay [8] it was 18.1 µM (inactive); in assay [9] it was 5.14 µM (inactive); in assay [10], 8.71 µM (inactive); in assay [11], 35.8 µM (inactive); in [12] it was 80.5 µM (inactive). For the same molecule, the GI50 in assay [13] is 36.7 µM (inactive); in assay [14], 29.4 µM (inactive); in assay [15], > 100 µM (inactive); in assay [16], 5.92 µM (inactive); in [17] it was 24 µM (inactive); in assay [18] it was > 78 µM (inactive). The values for the GI50 in [19] and in [20] were 6.46 µM (inactive) and 4.55 µM (inactive), respectively.

On to `CN(CCCNC(=O)c1nn(-c2ccc(Cl)cc2Cl)c2c1Cc1ccccc1-2)CCCNC(=O)c1nn(-c2ccc(Cl)cc2Cl)c2c1Cc1ccccc1-2`, for which the GI50 in [1] was 1.72 µM (inactive); in assay [2], 1.67 µM (inactive); in assay [3], 1.92 µM (inactive); in assay [4], 1.71 µM (inactive); in assay [5] it was 0.285 µM (active); in [6], 1.78 µM (inactive). Besides, the GI50 in [7] is 0.944 µM (active); in assay [8], 1.7 µM (inactive); in [9] it was 0.993 µM (active); in assay [10], 1.73 µM (inactive); in assay [11], 1.76 µM (inactive); in assay [12], 2.03 µM (inactive). The GI50 was 1.66 µM (inactive) in assay [13]; 1.96 µM (inactive) in assay [14]; 1.57 µM (inactive) in assay [15]; 1.49 µM (inactive) in assay [16]; 1.48 µM (inactive) in [17]; 1.64 µM (inactive) in [18]. For the same molecule, the GI50 in [19] is 1.7 µM (inactive); in assay [20], 1.21 µM (inactive).

In the case of `COc1ccc(NC(=O)CC(=O)n2nc(-c3ccccc3)c(/N=N/c3ccc(C)cc3)c2-c2ccccc2)cc1`, the GI50 is 23.8 µM (inactive) in assay [1]; 38.8 µM (inactive) in assay [2]; 32.7 µM (inactive) in [3]; > 49.3 µM (inactive) in assay [4]; 27.5 µM (inactive) in [5]; 16.4 µM (inactive) in assay [6]. Also, the GI50 was > 85.3 µM (inactive) in assay [7]; 34.1 µM (inactive) in [8]; > 84.7 µM (inactive) in assay [9]; > 41.4 µM (inactive) in assay [10]; 16.9 µM (inactive) in assay [11]; 21.2 µM (inactive) in assay [12]. For the same molecule, the GI50 in assay [13] is 21.8 µM (inactive); in assay [14] it was 21.6 µM (inactive); in [15], > 80 µM (inactive); in [16], > 100 µM (inactive); in assay [17], 69.5 µM (inactive); in [18], 62.8 µM (inactive). In addition, the results for the GI50 in assay [19] and in assay [20] were > 100 µM (inactive) and 55.7 µM (inactive), respectively.

In the case of `COc1ccc(OC)c(CSc2ccc(OC)c(OC)c2)c1`, the GI50 was > 81.5 µM (inactive) in assay [1]; > 64.6 µM (inactive) in [2]; 49.9 µM (inactive) in assay [3]; 38.8 µM (inactive) in [4]; 31.4 µM (inactive) in assay [5]; > 100 µM (inactive) in assay [6]. Further, the GI50 in assay [7] is 74.8 µM (inactive); in assay [8], > 86.9 µM (inactive); in assay [9] it was > 100 µM (inactive); in assay [10], > 79.8 µM (inactive); in [11], 99.1 µM (inactive); in assay [12] it was > 85.1 µM (inactive). The GI50 in assay [13] is 62.4 µM (inactive); in assay [14], > 100 µM (inactive); in assay [15], > 100 µM (inactive); in assay [16], > 50.5 µM (inactive); in assay [17], > 100 µM (inactive); in [18], 97.1 µM (inactive). For the same molecule, the GI50 in assay [19] was > 77.6 µM (inactive); in assay [20], > 84.7 µM (inactive).

Consider `Cc1ccc([N+](=O)[O-])cc1S(=O)(=O)Nc1ccc(C2=NN(S(=O)(=O)c3cc([N+](=O)[O-])ccc3C)C(c3ccccc3O)C2)cc1` (stereo not given), for which the GI50 in [1] is 34.4 µM (inactive); in assay [2], > 100 µM (inactive); in assay [3], 31.5 µM (inactive); in [4] it was 10.4 µM (inactive); in [5] it was > 100 µM (inactive); in assay [6], 51.8 µM (inactive). Further, the GI50 in assay [7] is 31.6 µM (inactive); in assay [8], > 100 µM (inactive); in [9], > 100 µM (inactive); in assay [10] it was > 100 µM (inactive); in assay [11], 98.9 µM (inactive); in [12], > 100 µM (inactive). For the same molecule, the GI50 in assay [13] is 57.7 µM (inactive); in [14] it was 26.5 µM (inactive); in assay [15] it was > 100 µM (inactive); in assay [16], > 100 µM (inactive); in assay [17], > 100 µM (inactive); in assay [18], > 100 µM (inactive). Moreover, the GI50 was > 100 µM (inactive) in [19] and 51.1 µM (inactive) in [20].

As to `COC1C(O)C(C)OC(OC2C(Oc3cccc4c(O)c5c(=O)oc6ccc(C)c7c(=O)oc(c34)c5c67)OC(C)C(O)C2O)C1O` (stereo not given), the GI50 was 1.29 µM (inactive) in [1]; 1.14 µM (inactive) in [2]; 1.03 µM (active) in [3]; 2.04 µM (inactive) in assay [4]; 6.24 µM (inactive) in assay [5]; 4.37 µM (inactive) in assay [6]. Also, the GI50 was 0.804 µM (active) in assay [7]; 0.731 µM (active) in [8]; 0.836 µM (active) in assay [9]; 4.04 µM (inactive) in [10]; 1.87 µM (inactive) in assay [11]; 1.9 µM (inactive) in assay [12]. The GI50 is 1.34 µM (inactive) in assay [13]; 0.904 µM (active) in assay [14]; 4.56 µM (inactive) in assay [15]; 2.38 µM (inactive) in assay [16]; 0.843 µM (active) in assay [17]; 2.16 µM (inactive) in assay [18]. Also, the GI50 in assay [19] was 2.01 µM (inactive); in [20], 1.39 µM (inactive).
